The source of these data is patent publication US7816521B2, “1,2,4-benzotriazine-1,4-dioxides” (Auckland Uniservices Limited, priority 2004, dated 2010).

Values after ≈ are worked out from the molar mass of the structure shown.

Data set [1] in a line: Solubility in culture medium. Type of data set: physicochemical. Particulars: culture medium (αMEM with 5% foetal bovine serum), plasma or biological fluid, thermodynamic from solid; culture medium (αMEM, 5% foetal bovine serum), pH 7.4; no unit in table, threshold is 2 mM. On the procedure:
Solubility is determined in laboratory culture medium (alpha minimal essential medium (αMEM) with 5% foetal bovine serum) saturated with 5% carbon dioxide at pH 7.4, by addition of excess compound and sonication at ambient temperature for 15 minutes. Alternatively the compound is diluted from a concentrated stock solution in DMSO into culture medium to give a final DMSO concentration <1%. The mixture is centrifuged at 13,000 rpm for 6 minutes and the concentration of drug in the supernatant solution is then determined by HPLC using a standard reference solution in a suitable solvent.

Data set [2] in a line: Plasma pharmacokinetics, AUC of free drug in CD-1 nude mice. Type of data set: in vivo, mouse. Particulars: CD-1 nude, mouse, plasma, ip, mouse plasma, free drug, at the MTD or 75% of the MTD; Table 2; read-out: AUC. How it is done: The area under the concentration time curve for free drug (AUCf) in mouse plasma at the maximum tolerated dose (MTD) was determined either experimentally or by calculation.
The compound was formulated in a suitable vehicle (e.g. 0.9% saline, 5% DMSO in 0.9% saline) and administered intraperitoneally (i.p.) as single dose to CD-1 nude mice in a dose-escalating format using 1.33-fold dose increments.
The compound was administered to CD-1 nude mice in a suitable formulation as a single dose (i.p.) at the MTD. Blood samples were collected by retro-orbital sinus bleed or cardiac puncture after which the mouse was culled, or by serial bleeding from the tail vein. Typical time points were 15, 30, 60, and 120 min after administration. Blood was collected in a heparinised container and centrifuged to collect the plasma. The plasma concentration of the compound was determined by HPLC or LCMS using suitable sample preparation and analytical methods. Calibration was done with internal or external standards. The area under the concentration-time curve (AUC) for total (free plus bound) drug was calculated using the linear/log trapezoidal rule and extrapolation to infinity OR standard non-compartmental (PK) modelling.
Plasma protein binding was measured by the determination of the free fraction (FF) by equilibrium dialysis at 37° C. in 50% (v/v) mouse plasma in phosphate-buffered saline (pH 7.4), using a single drug concentration at or near the observed or extrapolated maximum concentration in plasma (Cmax). Compound concentrations after dialysis were determined by HPLC or LCMS.
AUCf for the compound administered as a single dose (i.p.) to CD-1 nude mice at the MTD can be estimated using the following regression equation: Log10(AUCf)=a+b×log Pneutral+c×log10(IC50)+d×log10(HCR)+e×log10(DMCL)+f×log10(kmet)+g×(log Pneutral)^2 where the coefficients are described in the following table: […]

For data set [3], the system named is human colon carcinoma cell line HT-29. The data set can be described thus: Proliferation assay (IC50) under aerobic and hypoxic conditions. Type of data set: cell-based. The settings on record: for IC50: Homo sapiens, HT-29, HT29, anoxic, 4 hr exposure; for HCR: hypoxic cytotoxicity ratio: aerobic IC50 / hypoxic IC50, HT29. How it is done:
Compounds representative of the invention were evaluated under both aerobic and hypoxic conditions in a proliferation assay (IC50) using the human colon carcinoma cell line HT-29 as previously described [Hay et al, J. Med. Chem, 2003, 46, 169]. For each experiment, compounds were simultaneously tested under both oxic and hypoxic conditions and included TPZ as an independent internal control at the front and back of the assay. In all cases, a 8-methyl-5-nitroquinoline derivative was used as a second internal control to confirm that strict hypoxia was present during the experiment [Siim et al., Br. J. Cancer 1994, 70, 596].

In data set [4] the test system is hypoxic cells in HT29 tumours. The data set can be described thus: HT29 excision assay (drug after 20 Gy radiation, clonogenic survival). Format: in vivo, human. The settings on record: log10 kill of hypoxic cells in HT29 tumours, additional to radiation alone; MTD or 75% of MTD; Table 2. The text has this: In order to test the validity of this PK/PD model as a tool for predicting the antitumour activity of TPZ analogues, the inventors determined the key PK/PD parameters for 13 TPZ analogues, and TPZ itself, for the HT29 human colon carcinoma cell line. These parameters were then used to calculate the expected killing in hypoxic regions of HT29 tumours following a single intraperitoneal dose of the compounds at their maximum tolerated dose. The results of this calculation were then compared with measured killing of hypoxic cells in HT29 tumours, determined by administering the compounds immediately (within 5 min) after gamma irradiation (cobalt 60, 20 Gy) to sterilise oxygenated cells in the tumours. Tumours were removed 18 hours later and the number of surviving cells determined by clonogenic assay. The measured PK/PD parameters, model prediction (using the above 3D microvascular network), and experimentally determined hypoxic cell kill is shown in Table 1, and the relationship between predicted and measured cell kill in FIG. 4. The prediction is statistically highly significant (p=0.001, Fisher exact test). […] If the extravascular transport component was excluded from the model, the R^2 for this regression was only 0.28 and the relationship was not statistically significant.
Animals were treated with radiation alone (RAD, 20 Gy whole body); RAD+TPZ (316 μmol/kg); compound 3 (562 μmol/kg); RAD+compound 3 (562 μmol/kg). Tumours were excised 18 hr after treatment and clonogenic survival determined by staining colonies 14 days later. Each symbol represents a separate tumour. p<0.01 (one way ANOVA with Dunnett's test) for RAD+compound 3 and for RAD+TPZ versus RAD only. Horizontal lines are the historical means for untreated controls (upper line) and 20 Gy radiation only (lower line).
Compounds were evaluated with single dose radiation using s.c. HT29 tumors (average of two largest diameters 7-10 mm) grown by inoculating 10^7 cells (obtained by enzymatic dissociation of multicellular spheroids). Drugs were administered as single i.p. doses at their MTD with the following groups in each experiment. A: vehicle control, B: test drug, C: Radiation (20 Gy, cobalt-60, whole body irradiation), D: TPZ (316 μmol/kg) 5 min after radiation, E: Test drug 5 min after radiation. Each group included 3 (A, B) or 5 (C-E) mice. Tumors were excised 18 hr after treatment and plated to determine clonogenicity. Hypoxic cytotoxicity is determined by the difference in surviving fraction between groups C and E, while comparison of A and B evaluates oxic cell killing. Total yield of clonogens was used as the key parameter if cell yields were affected by treatment. Results of this assay are illustrated for compound 3 (and TPZ) in FIG. 5.

The solubility is the dissolved amount per volume that the medium holds. Lower therefore signals a poorly soluble substance. Usually AUC stands for concentration integrated over time. One may read the IC50 as the concentration needed to halve the response being measured. Lower therefore signals higher potency. Consider `CCc1n[n+]([O-])c2ccc(OCCCN3CCOCC3)cc2[n+]1[O-]` [U, 3-Ethyl-6-[3-(4-morpholinyl)propoxy]-1,2,4-benzotriazine 1,4-Dioxide], for which the concentration in solution in data set [1] (solubility) came to 46.7 mM (≈ 15.6 mg/mL). Further, the AUC in data set [2] amounted to 162 µM·h. Moreover, in data set [3], the IC50 stood at 6.17 µM and the HCR was 166.2. The compound further came in with an HT29 log kill in data set [4] of 1.66.

As for `COc1ccc2c(c1)[n+]([O-])c(NCCN(C)C)n[n+]2[O-]` [P, N^1-(6-Methoxy-1,4-dioxido-1,2,4-benzotriazin-3-yl)-N^2,N^2-dimethyl-1,2-ethanediamine], the solubility in data set [1] was 45.5 mM (≈ 12.7 mg/mL). In data set [2], the AUC is 240 µM·h. Also, in data set [3], it took 7.65 µM to reach half-maximal inhibition (IC50) and the HCR was 89.3. The HT29 log kill in data set [4] is given as 1.84.

In the case of `CCc1ccc2c(c1)[n+]([O-])c(NCCCN1CCOCC1)n[n+]2[O-]` [S, 6-Ethyl-N-[3-(4-morpholinyl)propyl]-1,2,4-benzotriazin-3-amine 1,4-Dioxide], in data set [1], the solubility amounted to 54.9 mM (≈ 18.3 mg/mL). Further, the exposure (AUC) in data set [2] was determined as 94.9 µM·h. In data set [3], the IC50 was 10.4 µM and the HCR turned out to be 35.0. In data set [4], this compound registered an HT29 log kill of 0.82.

Consider `COCCOc1ccc2c(c1)[n+]([O-])c(NCCN(C)C)n[n+]2[O-]` [Q, N^1-[6-(2-Methoxyethoxy)-1,4-dioxido-1,2,4-benzotriazin-3-yl]-N^2,N^2-dimethyl-1,2-ethanediamine], for which, in data set [1], the solubility turned out to be 51.2 mM (≈ 16.6 mg/mL). In addition, in data set [2], the area under the curve (AUC) turned out to be 256 µM·h. Besides, in data set [3], the IC50 was determined as 4.98 µM and the HCR worked out at 162.0. For the same compound, in data set [4], the HT29 log kill worked out at 0.53.

With `CCc1n[n+]([O-])c2ccc(OCCN(C)C)cc2[n+]1[O-]` [T, 2-[(3-Ethyl-1,4-dioxido-1,2,4-benzotriazin-6-yl)oxy]-N, N-dimethylethaneamine], the concentration in solution in data set [1] (solubility) was 48.5 mM (≈ 13.5 mg/mL). Moreover, in data set [2], the area under the curve (AUC) was determined as 55.7 µM·h. Besides, in data set [3], the 50% inhibitory concentration (IC50) stood at 1.33 µM and the HCR is on record as 307.2. The same compound came in with an HT29 log kill in data set [4] of 0.88.

In data set [1], `Cc1ccc2c(c1)[n+]([O-])c(NCCCN1CCOCC1)n[n+]2[O-]` [O, 6-Methyl-N-[3-(4-morpholinyl)propyl]-1,2,4-benzotriazin-3-amine 1,4-Dioxide] came in with a solubility of 42.6 mM (≈ 13.6 mg/mL). The AUC in data set [2] is 195 µM·h. In data set [3], the concentration for half-maximal inhibition (IC50) stood at 15.5 µM and the HCR turned out to be 24.7. In addition, the HT29 log kill in data set [4] came to 1.28.

As to `CCOc1ccc2c(c1)[n+]([O-])c(NCCN(C)C)n[n+]2[O-]` [R, N^1,N^1-Dimethyl-N^2-(6-ethoxy-1,4-dioxido-1,2,4-benzotriazin-3-yl)-1,2-ethanediamine], the solubility in data set [1] is 50.3 mM (≈ 14.8 mg/mL). The AUC in data set [2] turned out to be 82.4 µM·h. Moreover, in data set [3], the midpoint of inhibition, the IC50, lay at 2.6 µM and the HCR is recorded as 120.6. Moreover, the HT29 log kill in data set [4] was found to be 0.83.
